Assay results from the NIST ThermoML archive (doi:10.1021/je050389b).

Assay: xn = mol fraction of the nth substance listed
Conditions: Liquid

CC(=O)OCCC(C)C [3-methylbutyl ethanoate] + CCO
100.5 kPa
Conditions	mass density, 288.15 K [kg/m3]	mass density, 298.15 K [kg/m3]	mass density, 308.15 K [kg/m3]	mass density, 318.15 K [kg/m3]	viscosity, 288.15 K [mPa·s]	viscosity, 298.15 K [mPa·s]	viscosity, 308.15 K [mPa·s]	viscosity, 318.15 K [mPa·s]
x1 = 0.05	803.41	794.64	785.74	776.69	1.22	1.011	0.847	0.716
x1 = 0.1	811.89	802.92	793.84	784.6	1.133	0.946	0.799	0.68
x1 = 0.15	819.25	810.13	800.9	791.5	1.072	0.902	0.762	0.651
x1 = 0.2	825.81	816.58	807.21	797.69	1.031	0.866	0.735	0.63
x1 = 0.25	831.66	822.31	812.85	803.22	0.996	0.841	0.716	0.615
x1 = 0.3	836.85	827.42	817.86	808.15	0.968	0.821	0.701	0.605
x1 = 0.35	841.58	832.08	822.44	812.65	0.948	0.805	0.689	0.596
x1 = 0.4	845.81	836.24	826.53	816.69	0.934	0.793	0.68	0.59
x1 = 0.45	849.7	840.07	830.32	820.42	0.924	0.786	0.675	0.586
x1 = 0.5	853.26	843.59	833.79	823.86	0.916	0.779	0.671	0.583
x1 = 0.55	856.53	846.82	836.99	827.03	0.91	0.776	0.668	0.582
x1 = 0.6	859.57	849.83	839.97	829.99	0.907	0.773	0.667	0.582
x1 = 0.65	862.36	852.58	842.71	832.72	0.908	0.773	0.667	0.584
x1 = 0.7	865	855.21	845.33	835.33	0.911	0.775	0.67	0.588
x1 = 0.75	867.44	857.64	847.75	837.75	0.912	0.78	0.675	0.594
x1 = 0.8	869.73	859.93	850.04	840.05	0.916	0.782	0.68	0.601
x1 = 0.85	871.89	862.08	852.2	842.22	0.926	0.791	0.688	0.609
x1 = 0.9	873.95	864.14	854.28	844.34	0.937	0.799	0.697	0.618
x1 = 0.95	875.87	866.09	856.25	846.32	0.939	0.804	0.703	0.625
x1 = 1	877.72	867.91	858.07	848.17	0.94	0.804	0.704	0.627

CCCCCCCC(=O)OCC [ethyl octanoate] + CCO
Conditions	mass density, 288.15 K [kg/m3]	mass density, 298.15 K [kg/m3]	mass density, 308.15 K [kg/m3]	mass density, 318.15 K [kg/m3]	viscosity, 288.15 K [mPa·s]	viscosity, 298.15 K [mPa·s]	viscosity, 308.15 K [mPa·s]	viscosity, 318.15 K [mPa·s]
100.5 kPa, x1 = 0.05	–	–	–	–	1.322	1.094	0.915	0.772
100.5 kPa, x1 = 0.1	–	–	–	–	1.299	1.081	0.907	0.773
100.5 kPa, x1 = 0.15	–	–	–	–	1.306	1.087	0.915	0.78
100.5 kPa, x1 = 0.2	–	–	–	–	1.32	1.098	0.926	0.791
100.5 kPa, x1 = 0.25	–	–	–	–	1.337	1.112	0.94	0.804
100.5 kPa, x1 = 0.3	–	–	–	–	1.356	1.129	0.953	0.817
100.5 kPa, x1 = 0.35	–	–	–	–	1.375	1.145	0.969	0.831
100.5 kPa, x1 = 0.4	–	–	–	–	1.398	1.164	0.984	0.844
100.5 kPa, x1 = 0.45	–	–	–	–	1.42	1.183	1	0.859
100.5 kPa, x1 = 0.5	–	–	–	–	1.443	1.202	1.016	0.873
100.5 kPa, x1 = 0.55	–	–	–	–	1.468	1.222	1.033	0.888
100.5 kPa, x1 = 0.6	–	–	–	–	1.492	1.242	1.05	0.903
100.5 kPa, x1 = 0.65	–	–	–	–	1.517	1.262	1.068	0.917
100.5 kPa, x1 = 0.7	–	–	–	–	1.542	1.284	1.085	0.933
100.5 kPa, x1 = 0.75	–	–	–	–	1.568	1.306	1.103	0.948
100.5 kPa, x1 = 0.8	–	–	–	–	1.595	1.327	1.121	0.964
100.5 kPa, x1 = 0.85	–	–	–	–	1.623	1.35	1.14	0.979
100.5 kPa, x1 = 0.9	–	–	–	–	1.649	1.371	1.159	0.996
100.5 kPa, x1 = 0.95	–	–	–	–	1.673	1.391	1.177	1.013
100.5 kPa, x1 = 1	–	–	–	–	1.697	1.411	1.193	1.027
101 kPa, x1 = 0.05	805.14	796.5	787.73	778.81	–	–	–	–
101 kPa, x1 = 0.1	814.37	805.66	796.82	787.83	–	–	–	–
101 kPa, x1 = 0.15	822.04	813.27	804.39	795.36	–	–	–	–
101 kPa, x1 = 0.2	828.52	819.74	810.84	801.79	–	–	–	–
101 kPa, x1 = 0.25	833.98	825.17	816.25	807.19	–	–	–	–
101 kPa, x1 = 0.3	838.69	829.87	820.94	811.88	–	–	–	–
101 kPa, x1 = 0.35	842.77	833.94	825.02	815.96	–	–	–	–
101 kPa, x1 = 0.4	846.39	837.55	828.63	819.58	–	–	–	–
101 kPa, x1 = 0.45	849.59	840.77	831.86	822.83	–	–	–	–
101 kPa, x1 = 0.5	852.45	843.63	834.72	825.71	–	–	–	–
101 kPa, x1 = 0.55	855.04	846.23	837.34	828.36	–	–	–	–
101 kPa, x1 = 0.6	857.4	848.6	839.72	830.77	–	–	–	–
101 kPa, x1 = 0.65	859.54	850.77	841.92	832.99	–	–	–	–
101 kPa, x1 = 0.7	861.52	852.76	843.94	835.05	–	–	–	–
101 kPa, x1 = 0.75	863.4	854.68	845.88	837.01	–	–	–	–
101 kPa, x1 = 0.8	865.13	856.41	847.64	838.81	–	–	–	–
101 kPa, x1 = 0.85	866.72	858	849.25	840.47	–	–	–	–
101 kPa, x1 = 0.9	868.19	859.5	850.78	842.05	–	–	–	–
101 kPa, x1 = 0.95	869.6	860.93	852.26	843.57	–	–	–	–
101 kPa, x1 = 1	870.79	862.15	853.52	844.87	–	–	–	–
